Data reported in patent publication US20050181516A1, “Bioequivalence determination using expression profiling” (priority 2002, published 2005).
Entries after “also recorded” stand apart in the source; their conditions may differ.

Test system: gene expression (mRNA) in peripheral blood (lymphocytes)
Assay: Gene expression profiling (Affymetrix DNA microarrays) of blood samples of psoriatic patients before and after oral ASM981
Assay type: in vivo, human
Conditions: for Mean fold variation: day 13/14 vs baseline
Procedure: The dose used was 60 mg/day, given as 30 mg twice a day (b.i.d.). To make this dose the […] tablets were cut in half using a special cutter (Tablettenteiler NR.96) so as to obtain 30 mg of ASM981 or a matched amount of placebo.
ASM981 was evaluated as treatment for psoriasis using an oral dose of 60 mg (30 mg b.i.d) during a 4 weeks clinical study. The oral formulation used was a highly standardized oral dosage form that could be produced in large amounts and with a highly uniform composition, this was oral formulation A.
The cohort included 10 patients; 8 received oral formulation A and 2 received a placebo. Blood samples were collected before the first administration to establish the gene expression baseline and on days 13 or 14 after treatment with ASM981 or placebo and submitted to gene expression analysis in order to gain insights into the mechanisms of action of the compound.
The RNA from each of the blood samples was extracted and tested on individual DNA microarrays, thus allowing, for each patient, a comparison of gene expression before and after ASM981 treatment. […] Genes that were consistently modulated, i.e., change greater then a factor of two, were sorted in functional categories. Table 4 lists all the identified genes with their symbol, Unigene cluster number, protein accession number and the GenBank accession number for the sequence used to design the Affymetrix probes.
The extraction of the RNA from the samples, the preparation of the target, the hybridization and the analysis of the arrays, were performed according to the methods and protocols recommended by Affymetrix. Total RNA was extracted from the blood samples (lymphocytes) collected on days 0 and 14 using TRIZOL™ (Life Technologies), and purified through RNEASY™ columns (Qiagen) as needed. Good quality total RNA ([…]) was used to synthesize double-stranded cDNA using the SUPERSCRIPT CHOICE SYSTEM™ (Life Technologies). The cDNA was then in vitro transcribed (MEGASCRIPT™ T7 Kit, Ambion) to form biotin-labeled cRNA. The quality of the cRNA was checked on a test array according to the recommendation of Affymetrix. Next, […] of labeled cRNA were hybridized to the probe arrays for 16 hours at 45° C. Arrays were then washed according to the EukGE-WS2 protocol (Affymetrix), and stained with […] of streptavidin-phycoerythrin conjugate (Molecular Probes). The signal was antibody amplified with 2 mg/mL acetylated BSA (Life Technologies), 100 mM MES, 1 M [Na+], 0.05% Tween 20, 0.005% Antiofoam (Sigma), 0.1 mg/mL goat IgG and 0.5 mg/mL biotinylated antibody and re-stained with the streptavidin solution. After washing, the arrays were scanned twice with the GENE ARRAY® scanner (Affymetrix).
The data were analyzed comparing, for each individual patient, the gene expression levels before and after treatment. Only genes that were consistently modulated in at least 5 patients were considered as relevant. These variations were also compared with the gene expression changes observed in the placebo treated patients. During analysis, one chip (patient 44 before treatment) appeared to have very few correctly hybridized genes, and to introduce a bias into the analysis. This pair was excluded to establish average fold change.

With `CC[C@@H]1/C=C(\C)C[C@H](C)C[C@H](OC)[C@H]2O[C@@](O)(C(=O)C(=O)N3CCCC[C@H]3C(=O)O[C@H](/C(C)=C/[C@@H]3CC[C@H](Cl)[C@H](OC)C3)[C@H](C)[C@@H](O)CC1=O)[C@H](C)C[C@@H]2OC` [ASM981, 33-Epichloro-33-desoxy-ascomycin] the Mean fold variation (4-1BB ligand (TNFSF9) mRNA, blood) was “+2.3 fold”, the Mean fold variation (ADP/ATP translocase (SLC25A6) mRNA, blood) was −3.7 fold and the Mean fold variation (ALu RNA binding protein (SRP14) mRNA, blood) was −2.9 fold. The Mean fold variation (B7 protein (B7) mRNA, blood) was “+2.9 fold”, the Mean fold variation (BAP 31 (DXS1357E) mRNA, blood) was −9.2 fold and the Mean fold variation (BRCA2 (gene symbol ARPC2) mRNA, blood) was −6.5 fold. It also gave a Mean fold variation (Butyrophilin BTF5 (BTN3A1) mRNA, blood) of −10.6 fold, a Mean fold variation (CAMLG (calcium modulating cyclophilin ligand) mRNA, blood) of −5.2 fold and a Mean fold variation (CAPL/S100A4 mRNA, blood) of −37.8 fold. For the same compound, the Mean fold variation (CDC10 homologue (CDC10) mRNA, blood) was −6 fold, the Mean fold variation (COX6B mRNA, blood) was −13.6 fold and the Mean fold variation (CSF-1 (CSF1) mRNA, blood) was “+3.1 fold”. For the same compound, the Mean fold variation (Calmodulin (CALM2) mRNA, blood) was −28.8 fold, the Mean fold variation (Clone × 101 (MAP1A) mRNA, blood) was “+2.2 fold” and the Mean fold variation (Cyclin D2 (CCND2) mRNA, blood) was −16.6 fold. The Mean fold variation (Cyclin D3 (CCND3) mRNA, blood) was −7.2 fold, the Mean fold variation (Cystatin A (CSTA) mRNA, blood) was −2.4 fold and the Mean fold variation (Cystatin C (CST3) mRNA, blood) was −25 fold. For the same compound, the Mean fold variation (Cytochrome c oxidase subunit IV (COX4) mRNA, blood) was −15.8 fold, the Mean fold variation (Cytochrome c oxidase subunit VIc (COX6C) mRNA, blood) was −21.1 fold and the Mean fold variation (DARC (FY) mRNA, blood) was “+7 fold”. The Mean fold variation (EF-1, Elongation factor 1 delta (EEF1D) mRNA, blood) was −12.4 fold, the Mean fold variation (Epididymal secretory protein mRNA, blood) was −19.6 fold and the Mean fold variation (FC-epsilon binding protein Galectin 3 (LGALS3) mRNA, blood) was −21 fold. For the same compound, the Mean fold variation (Farnesyl transferase (FNTA) mRNA, blood) was −9 fold, the Mean fold variation (Ferritin (FTL) mRNA, blood) was −4.4 fold and the Mean fold variation (G gamma 11 (GNG11) mRNA, blood) was −6.2 fold. For the same compound, the Mean fold variation (GPR-9 CCR9 mRNA, blood) was “+3.4 fold”, the Mean fold variation (Gamma actin (ACTG1) mRNA, blood) was −3.4 fold and the Mean fold variation (Glutamine synthase (GLUL) mRNA, blood) was −2.6 fold. For the same compound, the Mean fold variation (Glutathione peroxidase mRNA, blood) was −5.4 fold, the Mean fold variation (HLA-DR (HLA-DRA) mRNA, blood) was −3.2 fold and the Mean fold variation (HLA-E mRNA, first of 2 sequences, blood) was −23.4 fold. It also gave a Mean fold variation (HLA-E mRNA, second of 2 sequences, blood) of −4.2 fold, a Mean fold variation (HLA-F mRNA, blood) of −10.2 fold and a Mean fold variation (HLA-I A 26 (HLA-A) mRNA, blood) of −4.1 fold. The Mean fold variation (HLA-I C (HLA-C) mRNA, blood) was −2.9 fold, the Mean fold variation (HLH G0S8 (RGS2) mRNA, blood) was −10.8 fold and the Mean fold variation (HMG-17 (HMG17) mRNA, blood) was −15.5 fold. It also gave a Mean fold variation (Histone H2 (H2AFL) mRNA, blood) of −42.6 fold, a Mean fold variation (Histone H3.3 (H3F3A) mRNA, blood) of −6.6 fold and a Mean fold variation (Ii Invariant chain, CD74 mRNA, blood) of −46.4 fold. For the same compound, the Mean fold variation (KIAA0 151 (IKKE) mRNA, blood) was “+2.5 fold”, the Mean fold variation (KIAA0055 (USP8) mRNA, blood) was “+3.7 fold” and the Mean fold variation (Kallistatin mRNA, blood) was “+3.3 fold”. The Mean fold variation (L-selectin (SELL) mRNA, blood) was −46.6 fold, the Mean fold variation (LAMP-1 (LAMP1) mRNA, blood) was −19.1 fold and the Mean fold variation (LAPT5 Lysosomal associated protein (LAPTM5) mRNA, blood) was −12.5 fold. It also gave a Mean fold variation (LFA1a (ITGAL) mRNA, blood) of −16.1 fold, a Mean fold variation (LFA1b (ITGB2) mRNA, blood) of −8.3 fold and a Mean fold variation (Lactate dehydrogenase (LDHB) mRNA, blood) of −17.1 fold. The Mean fold variation (Laminin receptor (LAMR1) mRNA, blood) was −7.3 fold, the Mean fold variation (Leukotriene A4 hydrolase (LTA4H) mRNA, blood) was −8 fold and the Mean fold variation (Lone HH109 mRNA, blood) was “+2 fold”. For the same compound, the Mean fold variation (MIC-2 CD99 (MIC2) mRNA, blood) was −65 fold, the Mean fold variation (MTf1 Mitochondrial transcription factor (TFAM) mRNA, blood) was “+3.2 fold” and the Mean fold variation (Macrophilin 12 FKBP (FKBP1A) mRNA, blood) was −66.2 fold. For the same compound, the Mean fold variation (Mitochondrial ubiquinone binding protein (first entry, M26730) mRNA, blood) was −5.4 fold, the Mean fold variation (Mitochondrial ubiquinone binding protein (second entry of Table 11) mRNA, blood) was “+6.6 fold” and the Mean fold variation (Myosin light chain non muscle type mRNA, blood) was −15.6 fold. The Mean fold variation (Myosin regulatory light chain (MLCB) mRNA, blood) was −8.5 fold, the Mean fold variation (NRGN Neuragranin mRNA, blood) was −3.1 fold and the Mean fold variation (Neutrophil cytochrome b light chain (CYBA) mRNA, blood) was −34.7 fold. The Mean fold variation (Non muscle-type cofilin (CFL1) mRNA, blood) was −2.9 fold, the Mean fold variation (Nuclear factor Nf-IL6 (CEBPB) mRNA, blood) was −6.8 fold and the Mean fold variation (Nucleosome assembly protein (NAP1L1) mRNA, blood) was −7.7 fold. The Mean fold variation (PF-4 (PF4V1) mRNA, blood) was −5.2 fold, the Mean fold variation (Platelet glycoprotein IIb (ITGA2B) mRNA, blood) was −5.2 fold and the Mean fold variation (Platelet glycoprotein Ib mRNA, blood) was −26.6 fold. For the same compound, the Mean fold variation (Prosaposin (PSAP) mRNA, blood) was −56.1 fold, the Mean fold variation (Prostaglandin endoperoxide synthase 1 (PTGS1) mRNA, blood) was −45.9 fold and the Mean fold variation (Proteoglycan core protein (PRG1) mRNA, blood) was “+49 fold”. The Mean fold variation (Prothymosin alpha (PTMA) mRNA, blood) was −71.7 fold, the Mean fold variation (Pyrroline5 carboxylate reductase (PYCR1) mRNA, blood) was “+34 fold” and the Mean fold variation (RANTES (SCYA5) mRNA, blood) was −5.3 fold. For the same compound, the Mean fold variation (RSU (RSU1) mRNA, blood) was −7.2 fold, the Mean fold variation (Ribosomal protein L 12 (RPL12) mRNA, blood) was −4.8 fold and the Mean fold variation (Ribosomal protein S 7 (RPS7) mRNA, blood) was −6.4 fold. For the same compound, the Mean fold variation (SABP1 (elk4) (ELK4) mRNA, blood) was “+6.4 fold”, the Mean fold variation (Scaffold attachment protein (HNRPU) mRNA, blood) was −7.1 fold and the Mean fold variation (Selectin P ligand SELPLG mRNA, blood) was −17.1 fold. The Mean fold variation (Serine Threonine phosphatase (PPP2R1B) mRNA, blood) was “+5.1 fold”, the Mean fold variation (Single stranded DNA binding (SSBP) mRNA, blood) was −8.5 fold and the Mean fold variation (Small nuclear ribonucleoprotein (SNRPN) mRNA, blood) was −2 fold. It also gave a Mean fold variation (TAX REB 67 (ATF4) mRNA, blood) of −22.6 fold, a Mean fold variation (TF lia transcription factor mRNA, blood) of −16.4 fold and a Mean fold variation (TRMP2 Apolipoprotein J mRNA, blood) of −6.8 fold. For the same compound, the Mean fold variation (Taurine transporter (SLC6A6) mRNA, blood) was “+4.4 fold”, the Mean fold variation (Thioredoxin binding protein/Vit. D3 Up regulated protein (VDUP1) mRNA, blood) was −5.4 fold and the Mean fold variation (Thromboxane A2 receptor (TBXA2R) mRNA, blood) was −9.3 fold. For the same compound, the Mean fold variation (Thymosin beta (TMSB10) mRNA, blood) was −7.5 fold, the Mean fold variation (Transaldolase mRNA, blood) was −3.1 fold and the Mean fold variation (Translationally controlled tumor protein (TPT1) mRNA, blood) was −3.2 fold. The Mean fold variation (Tyrosine phosphatase (huPP1) (PTP4A2) mRNA, blood) was −5.7 fold, the Mean fold variation (Ubiquitin like protein (UBL4) mRNA, blood) was −21.5 fold and the Mean fold variation (Vacuolar H + ATPase (ATP6N1A) mRNA, blood) was “+1.8 fold”. For the same compound, the Mean fold variation (Vimentin (VIM) mRNA, blood) was −7 fold, the Mean fold variation (Wilms tumor related protein mRNA, blood) was −4 fold and the Mean fold variation (Zinc finger protein ZNF141 mRNA, blood) was “+3.2 fold”. For the same compound, the “CD8+ T lymphocytes in the blood” value (after treatment) was “slightly more represented”, the “proportion of T cell expressing CD3 in the blood” value (after treatment) was “does not affect” and the “expression of genes of the Macrolactam target pathway (Macrophilin 12), cellular activation and proliferation (Histone2, Histone 3.3, cyclin D2)” value (among blood cells) was “down regulate”. For the same compound, the “FKBP12 at the level of RNA synthesis” value (blood) was “strongly down regulated”, the Kallistatin expression (blood) was “up-regulated” and the “expression of inflammatory mediators (Leukotriene A4 hydrolase, Prostaglandin endoperoxide synthase)” value (blood cells) was “strongly down regulate”. For the same compound, the “genes involved in asthma physiopathology (RANTES, GALECTIN-3, Thromboxane A2 receptor)” value (blood cells) was “markedly down regulated”, the “genes necessary for chemotaxis and cellular migration, including LFA-1, P-Selectin ligand and L-Selectin” value (blood cells) was “dramatic down regulation” and the CD3 expression level (blood, after treatment) was “unchanged”. The “granzyme A and B expression” value (blood, after treatment) was “increase”, the “genes involved in any known adverse side effect or toxicity pathway” value (expression profile, blood) was “no consistent pattern of alteration; also recorded: No gene linked to a possible adverse effect or to a toxicity pathway was found to be regulated” and the “toxic effect in the expression profile” value (expression profile, blood) was “No obvious toxic effect”. It also gave a Mean fold variation (pM5 (PM5) mRNA, blood) of −5.7 fold.
